In patent publication US8329686B2, “Isatin analogues and uses therefor” (Washington University, priority 2006, dated 2012):
Like-named read-outs stand apart in the source and are kept apart here. One block for each compound: values may come before it.

What was measured:
Format in all cases: biochemical
[1] = target: T1, caspase 8 (Homo sapiens, UniProt Q14790); assay: Enzyme inhibition assay, caspase 8 (fluorogenic Ac-IETD-AMC)
T1 construct: purchased Sigma-Aldrich (St. Louis, Mo.)

[2] = target: T2, caspase 6 (Homo sapiens, UniProt P55212); assay: Enzyme inhibition assay, caspase 6 (fluorogenic Ac-VEID-AMC)
T2 construct: purchased Sigma-Aldrich (St. Louis, Mo.)
T2 sequence (P55212 24-179 limits assumed): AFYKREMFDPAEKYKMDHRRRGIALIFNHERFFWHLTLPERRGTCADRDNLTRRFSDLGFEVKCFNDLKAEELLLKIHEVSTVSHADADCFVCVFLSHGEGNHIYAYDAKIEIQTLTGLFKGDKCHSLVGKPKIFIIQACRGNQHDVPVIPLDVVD
T2 sequence (P55212 194-293 limits assumed): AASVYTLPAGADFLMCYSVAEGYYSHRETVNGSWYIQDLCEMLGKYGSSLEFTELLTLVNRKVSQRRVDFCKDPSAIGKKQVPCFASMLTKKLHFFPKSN

[3] = target: T3, caspase 7 (Homo sapiens, UniProt P55210); assay: Enzyme inhibition assay, caspase 7 (fluorogenic Ac-DEVD-AMC)
T3 construct: purchased Sigma-Aldrich (St. Louis, Mo.)
T3 sequence (P55210 24-198 limits assumed): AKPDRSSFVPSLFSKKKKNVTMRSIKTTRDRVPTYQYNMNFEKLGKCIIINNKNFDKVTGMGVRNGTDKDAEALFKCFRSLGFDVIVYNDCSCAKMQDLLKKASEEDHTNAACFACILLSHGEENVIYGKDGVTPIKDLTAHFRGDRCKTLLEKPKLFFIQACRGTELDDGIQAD
T3 sequence (P55210 207-303 limits assumed): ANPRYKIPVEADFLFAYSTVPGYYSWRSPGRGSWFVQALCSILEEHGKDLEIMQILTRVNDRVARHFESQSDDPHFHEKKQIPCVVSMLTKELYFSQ

[4] = target: T4, caspase 1 (Homo sapiens, UniProt P29466); assay: Enzyme inhibition assay, caspase 1 (fluorogenic Ac-YVAD-AMC)
T4 construct: purchased BIOMOL Research Laboratories (Plymouth Meeting, Pa.)
T4 sequence (P29466 120-297 limits assumed): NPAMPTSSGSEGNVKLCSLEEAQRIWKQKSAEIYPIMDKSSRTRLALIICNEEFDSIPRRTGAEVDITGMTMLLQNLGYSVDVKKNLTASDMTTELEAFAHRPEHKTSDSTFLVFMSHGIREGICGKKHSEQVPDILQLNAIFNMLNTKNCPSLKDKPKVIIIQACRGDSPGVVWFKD
T4 sequence (P29466 317-404 limits assumed): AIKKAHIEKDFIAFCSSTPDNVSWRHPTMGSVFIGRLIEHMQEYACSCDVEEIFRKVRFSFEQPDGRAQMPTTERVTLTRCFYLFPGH

[5] = target: T5, caspase-3 (Homo sapiens, UniProt P42574); assay: Enzyme inhibition assay, caspase 3 (fluorogenic Ac-DEVD-AMC)
T5 construct: purchased Sigma-Aldrich (St. Louis, Mo.)
T5 sequence (P42574 29-175 limits assumed): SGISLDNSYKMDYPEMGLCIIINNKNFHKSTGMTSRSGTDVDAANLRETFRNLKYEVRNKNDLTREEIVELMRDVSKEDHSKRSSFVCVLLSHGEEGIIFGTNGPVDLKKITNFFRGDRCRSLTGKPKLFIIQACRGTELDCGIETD
T5 sequence (P42574 176-277 limits assumed): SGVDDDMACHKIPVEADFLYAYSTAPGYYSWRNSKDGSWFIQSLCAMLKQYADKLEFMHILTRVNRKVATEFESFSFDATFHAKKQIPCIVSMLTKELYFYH

[6] = Table 2, read-out: IC50 (nM) Caspase 8
[7] = Table 7, read-out: IC50 (nM) Casp-8
[8] = Table 2, read-out: IC50 (nM) Caspase 6
[9] = Table 7, read-out: IC50 (nM) Casp-6
[10] = Table 2, read-out: IC50 (nM) Caspase 7
[11] = Table 7, read-out: IC50 (nM) Casp-7
[12] = Table 2, read-out: IC50 (nM) Caspase 1
[13] = Table 7, read-out: IC50 (nM) Casp-1
[14] = Table 2, read-out: IC50 (nM) Caspase 3
[15] = Table 7, read-out: IC50 (nM) Casp-3

T1 sequence (Q14790 217-374 limits assumed): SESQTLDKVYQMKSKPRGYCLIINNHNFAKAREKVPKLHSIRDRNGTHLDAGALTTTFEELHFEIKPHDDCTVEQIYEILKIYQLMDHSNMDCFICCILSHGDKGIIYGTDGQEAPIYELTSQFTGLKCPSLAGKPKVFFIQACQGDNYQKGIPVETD
T1 sequence (Q14790 385-479 limits assumed): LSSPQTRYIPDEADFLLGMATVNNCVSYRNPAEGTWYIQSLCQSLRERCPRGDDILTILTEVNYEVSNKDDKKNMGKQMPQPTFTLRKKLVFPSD

Compound: N#CC(C#N)=C1C(=O)N(Cc2ccc(O)cc2)c2ccc(S(=O)(=O)N3CCC[C@H]3COc3ccccc3)cc21 [Compound 27c]
IC50 [1, 6]: > 50000 nM | IC50 [1, 7]: > 50000 nM | IC50 [2, 8]: 744 ± 48 nM | IC50 [2, 9]: 744 ± 48 nM | IC50 [3, 10]: 126 ± 19 nM | IC50 [3, 11]: 126 ± 19.3 nM | IC50 ([3]; read-out: IC50 for caspase-7): 126 nM | IC50 [4, 12]: 2300 nM | IC50 [4, 13]: 2300 ± 250 nM | IC50 [5, 14]: 31.8 ± 6.2 nM | IC50 [5, 15]: 31.8 ± 6.2 nM | IC50 ([5]; read-out: IC50 for caspase-3): 31.8 nM

Compound: N#CC(C#N)=C1C(=O)N(Cc2ccc(Br)cc2)c2ccc(S(=O)(=O)N3CCCC3COc3ccccc3)cc21 (stereo not drawn) [Compound 27d, 2-[1-(4-Bromo-benzyl)-2-oxo-5-(2-phenoxymethyl-pyrrolidine-1-sulfonyl)-1,2-dihydro-indol-3-yl-idene]-malononitrile]
IC50 [1, 6]: > 50000 nM | IC50 [1, 7]: > 50000 nM | IC50 [2, 8]: 840 ± 125 nM | IC50 [2, 9]: 840 ± 125 nM | IC50 [3, 10]: 92.2 ± 11.8 nM | IC50 [3, 11]: 92.2 ± 11.8 nM | IC50 ([3]; read-out: IC50 for caspase-7): 92.2 nM | IC50 [4, 12]: 5700 nM | IC50 [4, 13]: 5700 ± 850 nM | IC50 [5, 14]: 20.1 ± 1.3 nM | IC50 [5, 15]: 20.1 ± 1.3 nM | IC50 ([5]; read-out: IC50 for caspase-3): 20.1 nM

Compound: O=C1C(=O)N(Cc2ccc(O)cc2)c2ccc(S(=O)(=O)N3CCCC3COc3cccnc3)cc21 (stereo not drawn) [Compound 28b, 1-(4-Hydroxy-benzyl)-5-[2-(pyridin-3-yl-oxymethyl)-pyrrolidine-1-sulfonyl]-1H-indole-2,3-dione]
IC50 [1, 7]: > 50000 nM | IC50 [2]: 9550 ± 354 nM | IC50 ([3]; IC50 (nM) Casp-7, Table 7): 11.7 ± 1 nM | IC50 [4, 13]: > 15000 nM | IC50 ([5]; IC50 (nM) Casp-3, Table 7): 3.9 ± 0.6 nM

Compound: N#CC(C#N)=C1C(=O)N(Cc2ccccc2)c2ccc(S(=O)(=O)N3CCCC3COc3cccnc3)cc21 (stereo not drawn) [Compound 30a, 2-{1-Benzyl-2-oxo-5-[2-(pyridine-3-yloxymethyl)-pyrrolidine-1-sulfonyl]-1,2-dihydro-indol-3-yl-idene}-malononitrile]
IC50 [1, 6]: > 50000 nM | IC50 [1, 7]: > 50000 nM | IC50 ([1]; read-out: IC50 for caspase-8): > 50000 nM | IC50 [2]: 823 ± 86 nM | IC50 ([2]; read-out: IC50 for caspase-6): 515 to 770 nM | IC50 ([3]; IC50 (nM) Casp-7, Table 7): 32.8 ± 4.9 nM | IC50 ([3]; IC50 (nM) Caspase 7, Table 2): 32.8 ± 4.9 nM | IC50 ([3]; IC50 for caspase-7): 32.8 nM | IC50 [4]: 3250 nM | IC50 ([4]; IC50 (nM) Casp-1, Table 7): 3250 ± 450 nM | IC50 ([4]; read-out: IC50 for caspase-1): 2700 to 3200 nM | IC50 ([5]; IC50 (nM) Casp-3, Table 7): 7.6 ± 1.1 nM | IC50 ([5]; IC50 (nM) Caspase 3, Table 2): 7.6 ± 1.1 nM | IC50 ([5]; IC50 for caspase-3): 7.6 nM

Compound: N#CC(C#N)=C1C(=O)N(Cc2ccc(O)cc2)c2ccc(S(=O)(=O)N3CCCC3COc3cccnc3)cc21 (stereo not drawn) [Compound 30b, 2-{1-(4-Hydroxy-benzyl)-2-oxo-5-[2-(pyridine-3-yloxymethyl)-pyrrolidine-1-sulfonyl]-1,2-dihydro-indol-3-yl-idene}-malononitrile]
IC50 [1, 6]: > 50000 nM | IC50 [1, 7]: > 50000 nM | IC50 ([1]; read-out: IC50 for caspase-8): > 50000 nM | IC50 [2]: 650 ± 22 nM | IC50 [2, 8]: 850 ± 21 nM | IC50 ([2]; read-out: IC50 for caspase-6): 515 to 770 nM | IC50 ([3]; IC50 (nM) Casp-7, Table 7): 28.3 ± 5.4 nM | IC50 ([3]; IC50 (nM) Caspase 7, Table 2): 28.3 ± 5.4 nM | IC50 ([3]; IC50 for caspase-7): 28.6 nM | IC50 [4]: 2720 nM | IC50 ([4]; IC50 (nM) Casp-1, Table 7): 2720 ± 580 nM | IC50 ([4]; read-out: IC50 for caspase-1): 2700 to 3200 nM | IC50 ([5]; IC50 (nM) Casp-3, Table 7): 7.8 ± 1.9 nM | IC50 ([5]; IC50 (nM) Caspase 3, Table 2): 7.8 ± 1.9 nM | IC50 ([5]; IC50 for caspase-3): 7.8 nM

Compound: N#CC(C#N)=C1C(=O)N(Cc2ccc(Br)cc2)c2ccc(S(=O)(=O)N3CCCC3COc3cccnc3)cc21 (stereo not drawn) [Compound 30c, 2-{1-(4-Bromo-benzyl)-2-oxo-5-[2-(pyndine-3-yloxymethyl)-pyrrolidine-1-sulfonyl]-1,2-dihydro-indol-3-yl-idene}-malononitrile]
IC50 [1, 6]: > 50000 nM | IC50 [1, 7]: > 50000 nM | IC50 ([1]; read-out: IC50 for caspase-8): > 50000 nM | IC50 [2]: 515 ± 77 nM | IC50 ([2]; read-out: IC50 for caspase-6): 515 to 770 nM | IC50 ([3]; IC50 (nM) Casp-7, Table 7): 26.3 ± 0.8 nM | IC50 ([3]; IC50 (nM) Caspase 7, Table 2): 26.3 ± 0.8 nM | IC50 ([3]; IC50 for caspase-7): 26.3 nM | IC50 [4]: 3400 nM | IC50 ([4]; IC50 (nM) Casp-1, Table 7): 3400 nM | IC50 ([4]; read-out: IC50 for caspase-1): 2700 to 3200 nM | IC50 ([5]; IC50 (nM) Caspase 3, Table 2): 5.13 ± 0.7 nM | IC50 ([5]; IC50 for caspase-3): 5.1 nM

IC50 [1, 6]: > 50000 nM | IC50 [2, 8]: > 20000 nM | IC50 [3, 10]: > 50000 nM | IC50 [4, 12]: > 50000 nM | IC50 [5, 14]: > 20000 nM | potency as caspase-3/7 inhibitors (in words) ([5]; caspase-3/7): low potency
Compound: O=C1Nc2ccc(S(=O)(=O)N3CC[C@H]3COc3ccccc3)cc2C1=NO [WC-II-52]

IC50 [1, 6]: > 50000 nM | IC50 [2, 8]: 540 ± 44 nM | IC50 [3, 10]: 2380 nM | IC50 [4, 12]: 2380 nM | IC50 [5, 14]: 283 ± 15 nM
Compound: N#CC(C#N)=C1C(=O)Nc2ccc(S(=O)(=O)N3CC[C@H]3COc3ccccc3)cc21 [WC-II-54]

IC50 [1, 6]: > 50000 nM | IC50 [2, 8]: 450 ± 43 nM | IC50 [3, 10]: 50 ± 11.6 nM | IC50 [4, 12]: 3600 nM | IC50 [5, 14]: 6 ± 0.8 nM
Compound: COc1ccc(CN2C(=O)C(=C(C#N)C#N)c3cc(S(=O)(=O)N4CC[C@H]4COc4cccnc4)ccc32)cc1 [WC-II-87]
